From patent US11000555B2, “Method for preparing a limax compound and therapeutic use thereof” (GUANGXI JIUFU BIOTECHNOLOGY CO., LTD, priority 2017, dated 2021)
Structures can show the parent of a compound that is named as a salt. Marks after values point to notes of the source that are not given here.

Columns and labels:
[1] = tested on: mice; assay: Mouse spontaneous activity test; assay type: in vivo, Kunming mice
Experimental: Forty Kunming mice, half males and half females, were fasted for 12 h but free to drink water. The mice were randomly divided into four groups: a blank control group, a low does Compound group (0.4 g/kg, ig), a high dose Compound group (0.8 g/kg, ig) and a positive drug control group (Estazolam, 2 mg/kg). The mice were placed into the YLS-1A multifunctional recorder for spontaneous activities of small animals. After 5 minutes of adaptation, the number of the mice's spontaneous activities before administration were recorded, and the recording lasted for 10 minutes. The room was kept quiet during recording, at a room temperature of 20-24° C. After this, each group of mice was administered according to the above doses, and the number of spontaneous activities within 10 min were recorded 45 min later. The blank control group was given the same volume of normal saline (ig).

[2] = tested on: mice; assay: Inducing the mice to sleep by a subthreshold dose of pentobarbital sodium; assay type: in vivo, Kunming mice; conditions: Estazolam 2 mg/kg; pentobarbital sodium 30 mg/kg ip; n = 20
Experimental: Eighty Kunming mice, half males and half females, were fasted for 12 h but free to drink water. The mice were randomly divided into four groups: a blank control group, a low does Compound group (0.4 g/kg, ig), a high dose Compound group (0.8 g/kg, ig) and a positive drug control group (Estazolam, 2 mg/kg). each group of mice was administered according to the above doses (ig), and the blank control group was given the same volume of normal saline. Forty-five minutes later, each mouse was given (ip) 30 mg/kg pentobarbital sodium, and the number of mice falling asleep within 15 min was recorded by taking the absence of righting reflex more than 1 min as the indicator of falling asleep.

[3] = tested on: rats; assay: Physical dependence test: induced withdrawal test for the rats; conditions: morphine hydrochloride sc twice a day, increasing 5 to 60 mg/kg, 7 days; naloxone 5 mg/kg ip day 8
Experimental: The compound group was administered (ig) twice a day according to the dose increasing principle, at daily doses of 0.5, 1.0, 1.5, 2.0, 2.5, 3.0 g/kg. The dose was increased every day from 0.5 g/kg to 3.0 g/kg on day 6 which was adopted the same on day 7. The negative control group was given (ig) the same volume of vegetable oil per day at the same time and for the same times as the compound group. On day 8, the rats in each group were given naloxone (5 mg/kg, ip) to induce withdrawal, and the withdrawal status of the rats within 30 min and the weight change one hour before and after the inducement were observed. The evaluation criteria of withdrawal symptoms of rats were established by referring to the Tomoji Yanagita evaluation criteria and our pre-experimental results (see Appendix Table 17). The withdrawal scores and weight loss values of each group of rats were statistically processed. Weight loss value=weight before inducement−weight after inducement.

[4] = tested on: mice; assay: Physical dependence test: induced withdrawal test for the mice; conditions: morphine hydrochloride sc twice a day, increasing 25 to 150 mg/kg daily, 7 days, naloxone 8 mg/kg ip
Experimental: The daily doses were 25, 50, 75, 100, 125, 150 mg/kg according to the dose increasing principle, increased day by day, reached 150 mg/kg on day 6 which was adopted the same on day 7. The compound group was administered (ig) twice daily (8:00 am, 8:00 pm) at daily doses of 0.6, 1.2, 1.8, 2.4, 3.0, 3.6 g/kg. The dose increased every day from 0.6 g/kg to 3.6 g/kg on day 6 which was adopted the same on day 7. The negative control group was given (ig) the same volume of vegetable oil every day at the same time and for the same times as the compound group. On day 7, naloxone (8 mg/kg, ip) was given to each group of mice to induce withdrawal. The jump reaction within 30 min and weight change one hour before and after inducement were observed. Weight loss value=weight before inducement−weight after inducement.

[5] = tested on: morphine-induced place preference of mice; assay: Conditioned place preference of morphine-induced mice; assay type: in vivo, Kunming mice
Experimental: The mice were acclimatized for 3 days, the natural place preference time of the mice was measured before the administration, so that the mice with obvious preference on one cuboid of the experimental box were excluded to clear the effect of unconditional place preference on the results. […] The observation was conducted under sound insulation conditions. […] Thus, the white cuboid was used as the non-preferred side (i.e., the companion box).
After 6 consecutive days of training and administration, the mice developed conditioned place preference.
Each group was administered for 3 consecutive days.

[6] = tested on: mice; assay: Acetic acid writhing test of mice; assay type: in vivo, Kunming mice; conditions: methadone 20 mg/kg, delivery route im; 0.6% acetic acid ip; in 20 min
Experimental: Forty Kunming mice, male, were fasted for 12 h before the experiment but free to drink water. They were randomly divided into 4 groups: a blank control group, a low dose Compound group, a high dose Compound group, and a positive control group. […] The mice were administered (ig) at a low dose (0.4 g/kg) and a high dose (0.8 g/kg) of the compound, at a volume of 0.2 ml per 10 g body weight. The positive control group was administered (ip) methadone (20 mg/kg) and the blank control group was given (ig) the same volume of normal saline. Forty-five minutes after administration, each mouse was given (ip) 0.6% acetic acid, 0.2 ml for each. The mice were then observed for writhing reaction, with abdominal contraction and hind limb extension or hip elevation regarded as positive. Times of writhing in 20 min were recorded starting from 5 min after acetic acid injection. The analgesic effect was evaluated by taking completely inhibiting writhing reaction induced by acetic acid as an indicator.

[7] = tested on: mice; assay: Hot plate test of analgesic effect; assay type: in vivo, Kunming mice; conditions: hot plate 55° C.; for Pain threshold: methadone 20 mg/kg, cut-off 60 seconds
Experimental: Kunming mice, female, were selected. And a selection among them was conducted prior to the test. The hot plate was adjusted to 55° C.±0.5° C., the female mice were placed on the hot plate, and the duration (in seconds) required from placing the mice on the hot plate until the mice licked their feet as the normal pain threshold of the mice. All those who licked their feet within 5 s or after 30 s and jumped were abandoned. Forty qualified mice were selected and randomly divided into 4 groups: a blank control group, a low dose Compound group, a high dose Compound group, and a positive control group, 10 mice per group. The normal pain threshold of each mouse was measured repeatedly, and the average of two measurements was taken as the pre-administration pain threshold of the mouse. Each group was then administered (at doses and by delivery routes as above), 0.2 ml per 10 g body weight. The pain threshold of each group was measured 60 min and 120 min after administration. If a mouse remained unresponsive for more than 60 seconds on the hot plate, its pain threshold was calculated as 60 seconds.

[8] = tested on: morphine-dependent mice; assay: Therapeutic effect on naloxone-induced withdrawal symptoms of morphine-dependent mice; assay type: in vivo, Kunming mice; conditions: methadone 20 mg/kg ig
Experimental: The model of morphine-dependent mice was replicated by the dose-increasing method. […] Group (1) was a blank control group, injected subcutaneously (sc) with normal saline (0.2 ml/10 g), and groups (2)˜(5) were used to replicate the model of morphine-dependent mice by the dose-increasing method.
The administration continued for 3 days for each group. Mice were free to drink and eat. Naloxone (8.0 mg/kg, ip) was given 1 h after administrations on d1 and d3 during the treatment to induce withdrawal symptoms, and jumping reaction in 30 min and body weights before and after the inducement were observed.

Q: With `Clc1ccc2c(c1)C(c1ccccc1)=NCc1nncn1-2` [Estazolam, reference compound] as the compound, how does the “Number of spontaneous activities” value ([1]; After administration (45 min), Estazolam 2 mg/kg) read?
A: 45.4 ± 34.43**^ΔΔ per 10 min

Q: What about the “Number of spontaneous activities” value ([1]; Before administration, Estazolam group) of the same compound?
A: 136.6 ± 43.35 per 10 min

Q: What about the “Number of the mice showing disappearance of righting reflex” value [2] of the same compound?
A: 18 per group

Q: Which “Induced withdrawal symptom score” value [3] does the source give for `CN1CC[C@]23c4c5ccc(O)c4O[C@H]2[C@@H](O)C=C[C@H]3[C@H]1C5.Cl` [Morphine, Morphine hydrochloride, reference compound] here?
A: 76.9 ± 14.53

Q: What about the Weight loss [4] of the same compound?
A: 0.57 ± 0.25 g

Q: What about the Number of jumps ([4]; 30 min) of the same compound?
A: 64.10 ± 15.29

Q: Which “Duration of mice staying in companion box” value ([5]; After administration, methadone 20 mg/kg ig 3 days + morphine 9 mg/kg sc, 15 min observation) does the source give for `CCC(=O)C(CC(C)N(C)C)(c1ccccc1)c1ccccc1` (stereo not drawn) [methadone, Methadone hydrochloride, reference compound] here?
A: 499.6 ± 123.26*^ΔΔ s

Q: And the “Duration of mice staying in companion box” value ([5]; Before administration (base line), methadone 20 mg/kg + morphine 9 mg/kg group)?
A: 333.7 ± 114.95 s

Q: And the Times of writhing [6]?
A: 8.7 ± 3.74

Q: And the Pain threshold ([7]; 60 min)?
A: 58.4 ± 9.05 s

Q: What about the Pain threshold ([7]; 120 min) of the same compound?
A: 51.5 ± 10.11 s

Q: What about the “Pain threshold before administration” value ([7]; base line, methadone group) of the same compound?
A: 24.4 ± 5.72 s

Q: What about the “Numbers of jumping reactions of mice (mice of n = 10)” value ([8]; d 1) of the same compound?
A: 10

Q: What about the “Numbers of jumping reactions of mice, percentage” value ([8]; d 1) of the same compound?
A: 100%

Q: What about the “Weight change: body weights of mice before and after induced withdrawal” value ([8]; d 1) of the same compound?
A: 0.22 ± 0.19 g

Q: What about the “Numbers of jumping reactions of mice (mice of n = 10)” value ([8]; d 3) of the same compound?
A: 10

Q: And the “Numbers of jumping reactions of mice, percentage” value ([8]; d 3)?
A: 100%

Q: What about the “Weight change: body weights of mice before and after induced withdrawal” value ([8]; d 3) of the same compound?
A: 0.46 ± 0.23 g
